Source: the CheMixHub viscosity set

Assay: xn = mol fraction of the nth substance listed
Conditions: 101 kPa

CCOCCO + OCCOCCOCCO
Conditions | viscosity [mPa·s]
293.15 K, x1 = 0.0493 | 36.7
293.15 K, x1 = 0.1039 | 32.11
293.15 K, x1 = 0.1964 | 25.21
293.15 K, x1 = 0.3004 | 18.99
293.15 K, x1 = 0.3949 | 14.53
293.15 K, x1 = 0.4468 | 12.49
293.15 K, x1 = 0.5005 | 10.66
293.15 K, x1 = 0.5512 | 9.194
293.15 K, x1 = 0.6003 | 7.883
293.15 K, x1 = 0.7017 | 5.752
293.15 K, x1 = 0.7946 | 4.246
293.15 K, x1 = 0.9032 | 2.957
293.15 K, x1 = 0.941 | 2.603
298.15 K, x1 = 0.0425 | 31.4
298.15 K, x1 = 0.1132 | 26.58
298.15 K, x1 = 0.198 | 21.56
298.15 K, x1 = 0.2956 | 16.85
298.15 K, x1 = 0.3992 | 12.84
298.15 K, x1 = 0.4535 | 11.09
298.15 K, x1 = 0.5008 | 9.696
298.15 K, x1 = 0.5433 | 8.635
298.15 K, x1 = 0.5935 | 7.463
298.15 K, x1 = 0.69 | 5.545
298.15 K, x1 = 0.8038 | 3.871
298.15 K, x1 = 0.8966 | 2.774
298.15 K, x1 = 0.95 | 2.248
303.15 K, x1 = 0.0543 | 26.39
303.15 K, x1 = 0.0954 | 24.22
303.15 K, x1 = 0.2034 | 19.01
303.15 K, x1 = 0.2991 | 15.11
303.15 K, x1 = 0.4003 | 11.78
303.15 K, x1 = 0.4492 | 10.39
303.15 K, x1 = 0.5007 | 9.084
303.15 K, x1 = 0.5429 | 8.086
303.15 K, x1 = 0.5978 | 6.967
303.15 K, x1 = 0.6987 | 5.187
303.15 K, x1 = 0.8008 | 3.732
303.15 K, x1 = 0.9005 | 2.597
303.15 K, x1 = 0.95 | 2.081

CC(C)CCO + OCc1ccccc1
viscosity [mPa·s]
Conditions | x1 = 0.0955 | x1 = 0.1908 | x1 = 0.2853 | x1 = 0.3812 | x1 = 0.4814 | x1 = 0.5847 | x1 = 0.6842 | x1 = 0.7879 | x1 = 0.8921
293.15 K | 6.28 | 6.27 | 6.26 | 6.18 | 6.07 | 5.86 | 5.58 | 5.23 | 4.86
298.15 K | 5.53 | 5.51 | 5.49 | 5.42 | 5.31 | 5.11 | 4.85 | 4.53 | 4.19
303.15 K | 4.64 | 4.63 | 4.62 | 4.58 | 4.49 | 4.37 | 4.19 | 3.94 | 3.64
308.15 K | 3.96 | 3.92 | 3.89 | 3.86 | 3.81 | 3.7 | 3.53 | 3.28 | 3
313.15 K | 3.48 | 3.44 | 3.39 | 3.36 | 3.31 | 3.22 | 3.1 | 2.95 | 2.71
318.15 K | 3.05 | 3 | 2.95 | 2.89 | 2.83 | 2.74 | 2.63 | 2.49 | 2.3
